Reference: US20230279018A1, “AP[…] INHIBITION” (priority 2020, published 2023)

How the values were obtained:
HscFRS [1] = target: T1, HscFRS (Homo sapiens, UniProt Q9Y285); assay: Surface Plasmon Resonance binding, HscFRS; conditions: SPR, 25° C., PBS pH 7.4, 5% DMSO; read-out: cFRS Kd, Hs
T1 sequence (Q9Y285 1-508): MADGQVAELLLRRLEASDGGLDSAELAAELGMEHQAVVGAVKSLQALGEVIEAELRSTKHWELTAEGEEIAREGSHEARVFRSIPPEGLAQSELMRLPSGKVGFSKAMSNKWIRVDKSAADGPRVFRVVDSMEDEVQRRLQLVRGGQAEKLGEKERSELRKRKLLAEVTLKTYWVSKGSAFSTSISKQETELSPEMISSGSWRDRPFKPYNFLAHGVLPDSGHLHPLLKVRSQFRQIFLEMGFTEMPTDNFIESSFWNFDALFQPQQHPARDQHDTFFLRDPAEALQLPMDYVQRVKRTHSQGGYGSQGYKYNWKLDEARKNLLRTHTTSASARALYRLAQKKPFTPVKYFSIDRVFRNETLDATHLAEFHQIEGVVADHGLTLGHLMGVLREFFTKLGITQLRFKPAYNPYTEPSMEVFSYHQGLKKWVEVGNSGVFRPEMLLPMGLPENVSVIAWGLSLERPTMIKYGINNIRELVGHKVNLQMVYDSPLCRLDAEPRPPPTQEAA
T1 sequence (Q9NSD9 1-589 partner): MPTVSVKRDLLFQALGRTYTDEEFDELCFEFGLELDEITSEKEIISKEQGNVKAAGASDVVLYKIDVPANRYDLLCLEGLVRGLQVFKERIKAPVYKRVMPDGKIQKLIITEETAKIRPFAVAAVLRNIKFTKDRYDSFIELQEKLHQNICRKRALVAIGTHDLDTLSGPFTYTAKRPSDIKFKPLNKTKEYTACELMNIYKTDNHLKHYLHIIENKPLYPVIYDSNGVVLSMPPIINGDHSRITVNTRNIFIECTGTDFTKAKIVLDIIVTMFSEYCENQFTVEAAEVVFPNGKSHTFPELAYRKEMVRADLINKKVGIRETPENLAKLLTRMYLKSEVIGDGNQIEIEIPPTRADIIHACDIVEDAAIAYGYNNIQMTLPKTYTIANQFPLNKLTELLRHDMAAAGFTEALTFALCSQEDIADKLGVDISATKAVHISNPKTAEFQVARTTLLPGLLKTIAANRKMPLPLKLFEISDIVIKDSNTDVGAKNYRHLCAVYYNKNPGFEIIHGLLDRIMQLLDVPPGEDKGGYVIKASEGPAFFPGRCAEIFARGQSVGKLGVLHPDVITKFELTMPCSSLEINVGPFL
Experimental: Surface Plasmon Resonance experiments to evaluate the binding of Compound 1 to proteins were carried out on a Biacore T200 instrument (GE Healthcare) at 25° C. The binding experiments were performed in buffer 10 mM phosphate buffered saline (PBS), pH 7.4, containing 5% dimethyl sulfoxide (DMSO). The flow system was primed with the running buffer before the initiation of the experiment. Both PfcFRS and HscFRS were immobilized to Sensor Chip CM5 by standard amine coupling chemistry using N-hydroxysuccinimide (NHS) and ethyl(dimethylaminopropyl) carbodiimide (EDC), to an immobilization level of approximately 1500 RU. The binding experiments were carried out in a single cycle kinetics mode. Compound 1 was serially diluted in running buffer, and injected at a flow rate of 60 μl min^−1 across both surface for 60 s and dissociation were set up for 120 s. The analysis was done using Biaevaluation (GE Healthcare) and GraphPad Prism 7 software (GraphPad Software Inc, USA). […] The equilibrium dissociation constants (Kd) were determined by plotting the measured response (Req) as a function of the analyte concentration. […] Measured sensograms illustrating the binding of various concentrations of Compound 1 to the protein are shown in FIG. 3B (PfcFRS) and 3C (HscFRS) including both the measured data and the 1:1 binding model fit.

HscFRS [2] = target: T1, HscFRS; assay: malachite green-based aminoacylation assay, HscFRS; format: biochemical; conditions: aminoacylation activity
From the text: EC50 assays were run as described in Int'l Pub Nos. WO 2015070204, WO 2018175385, and Kato, N, et al. Nature 538 (2016): 344-349, which are hereby incorporated by reference in its entirety. The inhibition of the aminoacylation activity of Pf (Plasmodium falciparum), Pv (Plasmodium vivax), Hs (Human) and Pf-Mut (L550V) cFRS enzymes by Compound 1 are illustrated in FIG. 1.
The enzymatic activity of purified heterodimeric PfcFRS using malachite green-based aminoacylation assays with substrates L-Phe and ATP was also measured as described in Cestari, I. et al., J Biomol. Screen. 18 (2013): 490-497 and Kato, N, et al. Nature 538 (2016): 344-349, which are hereby incorporated by reference in its entirety. […] Enzymatic reactions (50 μl total volume) were performed in clear, flat-bottomed, 96-well plates (Costar 96-well standard microplates). The reaction mixture was incubated for 2 h at 37° C. The reaction was stopped by adding 12.5 μl of malachite green solution to the reaction mixture and levels of inorganic phosphate (Pi) were detected after incubation of 5 min at room temperature. Absorbance was the measured at 620 nm using a Spectramax M2 (Molecular Devices). Reactions without FRS enzyme were performed as background controls, values of which were subtracted from the reactions with enzyme. […]

COC[C@@H]1[C@H](c2ccc(C#Cc3ccccc3)cc2)[C@@H]2CN(C(=O)Nc3ccc(OC4CC4)cc3)C[C@@H](O)[C@@H](O)CN12 [Compound 1, (3S,4R,8R,9R,10S)—N-(4-cyclopropoxyphenyl)-3,4-dihydroxy-10-(methoxymethyl)-9-(4-(phenylethynyl)phenyl)-1,6-diazabicyclo[6.2.0]decane-6-carboxamide] showed a Kd (HscFRS [1]) of 16 µM and an IC50 (HscFRS [2]) of 12 µM.
